Assays:
Test in all cases: NCI-60 single-dose screen
EKVX = assay type: cell-based, human; conditions: Homo sapiens, 10^–5 M, read-out: GI (%)
In short: (§1)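 The National Cancer Institute screened these compounds at a fixed 10^−5 M in its sixty-line human tumor cell panel.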

NCI-H226 = assay type: cell-based, human; conditions: Homo sapiens; NCI-H226, 10^–5 M; read-out: GI (%)
In short: as §1

PC-3 = assay type: cell-based; conditions: Homo sapiens, PC-3, PC-3, 10^–5 M; read-out: GI (%)
In short: as §1

HCC-2998 = assay type: cell-based; conditions: Homo sapiens; HCC-2998, 10^–5 M; read-out: GI (%)
In short: as §1

IGROV1 = assay type: cell-based; conditions: Homo sapiens, IGROV-1; IGROV1, 10^–5 M; read-out: GI (%)
In short: as §1

LOX IMVI = assay type: cell-based; conditions: Homo sapiens, 10^–5 M, read-out: GI (%)
In short: as §1

UACC-62 = assay type: cell-based; conditions: Homo sapiens; UACC-62, 10^–5 M; read-out: GI (%)
In short: as §1

HL-60(TB) = assay type: cell-based; conditions: Homo sapiens, 10^–5 M, read-out: GI (%)
In short: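 Each compound is applied at 10^−5 M to human tumor lines of the NCI-60 panel, which spans nine cancer types including melanoma, renal, CNS and ovarian.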

HCT-15 = assay type: cell-based; conditions: Homo sapiens; HCT-15, 10^–5 M; read-out: GI (%)
In short: as §1

SK-MEL-2 = assay type: cell-based; conditions: Homo sapiens; SK-MEL-2, 10^–5 M; read-out: GI (%)
In short: as §1

786-0 = assay type: cell-based; conditions: Homo sapiens; 786-0, 10^–5 M; read-out: GI (%)
In short: as §1

OVCAR-5 = assay type: cell-based; conditions: Homo sapiens; OVCAR-5, 10^–5 M; read-out: GI (%)
In short: as §1

CCRF-CEM = assay type: cell-based; conditions: Homo sapiens, 10^–5 M, read-out: GI (%)
In short: as §1

NCI/ADR-RES = assay type: cell-based; conditions: Homo sapiens, 10^–5 M, read-out: GI (%)
In short: as §1

COLO205 = assay type: cell-based; conditions: Homo sapiens, COLO 205; COLO205, 10^–5 M; read-out: GI (%)
In short: as §1

SW-620 = assay type: cell-based; conditions: Homo sapiens; SW-620, 10^–5 M; read-out: GI (%)
In short: as §1

A549/ATCC = assay type: cell-based; conditions: Homo sapiens, 10^–5 M, read-out: GI (%)
In short: as §1

HCT-116 = assay type: cell-based; conditions: Homo sapiens; HCT-116, 10^–5 M; read-out: GI (%)
In short: as §1

SK-MEL-5 = assay type: cell-based; conditions: Homo sapiens; SK-MEL-5, 10^–5 M; read-out: GI (%)
In short: as §1

SNB-75 = assay type: cell-based; conditions: Homo sapiens; SNB-75, 10^–5 M; read-out: GI (%)
In short: as §1

OVCAR-8 = assay type: cell-based; conditions: Homo sapiens; OVCAR-8, 10^–5 M; read-out: GI (%)
In short: as §1

MCF7 = assay type: cell-based; conditions: Homo sapiens; MCF7, 10^–5 M; read-out: GI (%)
In short: as §1

NCI-H322M = assay type: cell-based; conditions: Homo sapiens, 10^–5 M, read-out: GI (%)
In short: as §1

KM12 = assay type: cell-based; conditions: Homo sapiens; KM12, 10^–5 M; read-out: GI (%)
In short: as §1

SN12C = assay type: cell-based; conditions: Homo sapiens, 10^–5 M, read-out: GI (%)
In short: as §1

SF-539 = assay type: cell-based; conditions: Homo sapiens; SF-539, 10^–5 M; read-out: GI (%)
In short: as §1

MDA-MB-231/ATCC = assay type: cell-based; conditions: Homo sapiens, 10^–5 M, read-out: GI (%)
In short: as §1

SNB-19 = assay type: cell-based; conditions: Homo sapiens; SNB-19, 10^–5 M; read-out: GI (%)
In short: as §1

HOP-92 = assay type: cell-based; conditions: Homo sapiens; HOP-92, 10^–5 M; read-out: GI (%)
In short: as §1

OVCAR-3 = assay type: cell-based; conditions: Homo sapiens; OVCAR-3, 10^–5 M; read-out: GI (%)
In short: as §1

A498 = assay type: cell-based; conditions: Homo sapiens; A498, 10^–5 M; read-out: GI (%)
In short: as §1

CAKI-1 = assay type: cell-based; conditions: Homo sapiens; CAKI-1, 10^–5 M; read-out: GI (%)
In short: as §1

K-562 = assay type: cell-based; conditions: Homo sapiens, K562; K-562, 10^–5 M; read-out: GI (%)
In short: as §1

SK-MEL-28 = assay type: cell-based; conditions: Homo sapiens; SK-MEL-28, 10^–5 M; read-out: GI (%)
In short: as §1

SK-OV-3 = assay type: cell-based; conditions: Homo sapiens; SK-OV-3, 10^–5 M; read-out: GI (%)
In short: as §1

NCI-H23 = assay type: cell-based; conditions: Homo sapiens; NCI-H23, 10^–5 M; read-out: GI (%)
In short: as §1

UACC-257 = assay type: cell-based; conditions: Homo sapiens; UACC-257, 10^–5 M; read-out: GI (%)
In short: as §1

| SMILES | inhibition at 10 µM (EKVX) [%] | inhibition at 10 µM (NCI-H226) [%] | inhibition at 10 µM (PC-3) [%] | inhibition at 10 µM (HCC-2998) [%] | inhibition at 10 µM (IGROV1) [%] | inhibition at 10 µM (LOX IMVI) [%] | inhibition at 10 µM (UACC-62) [%] | inhibition at 10 µM (HL-60(TB)) [%] | inhibition at 10 µM (HCT-15) [%] | inhibition at 10 µM (SK-MEL-2) [%] | inhibition at 10 µM (786-0) [%] | inhibition at 10 µM (OVCAR-5) [%] | inhibition at 10 µM (CCRF-CEM) [%] | inhibition at 10 µM (NCI/ADR-RES) [%] | inhibition at 10 µM (COLO205) [%] | inhibition at 10 µM (SW-620) [%] | inhibition at 10 µM (A549/ATCC) [%] | inhibition at 10 µM (HCT-116) [%] | inhibition at 10 µM (SK-MEL-5) [%] | inhibition at 10 µM (SNB-75) [%] | also measured |
| --- | --- | --- | --- | --- | --- | --- | --- | --- | --- | --- | --- | --- | --- | --- | --- | --- | --- | --- | --- | --- | --- |
| O=C1C(Nc2ccc(I)cc2)=CC(c2ccco2)N1c1ccc(I)cc1 (centres unmarked) [3m] | 39 | 22 | 28 | 10 | 8 | 63 | 61 | 30 | 16 | 100 | 36 | 0 | 59 | 15 | 8 | 16 | 16 | 20 | 17 | 9 | inhibition at 10 µM (OVCAR-8): 11%; inhibition at 10 µM (MCF7): 93%; inhibition at 10 µM (NCI-H322M): 19%; inhibition at 10 µM (KM12): 48%; inhibition at 10 µM (SN12C): 27%; inhibition at 10 µM (SF-539): 63%; inhibition at 10 µM (MDA-MB-231/ATCC): 11%; inhibition at 10 µM (SNB-19): 8%; inhibition at 10 µM (HOP-92): 29%; inhibition at 10 µM (OVCAR-3): 8%; inhibition at 10 µM (A498): 12%; inhibition at 10 µM (CAKI-1): 53%; inhibition at 10 µM (K-562): 14%; inhibition at 10 µM (SK-MEL-28): 20%; inhibition at 10 µM (SK-OV-3): 67%; inhibition at 10 µM (NCI-H23): 19%; inhibition at 10 µM (UACC-257): 32% |
| O=C1C(Nc2ccc(I)cc2)=CC(c2ccc3c(c2)OCO3)N1c1ccc(I)cc1 (centres unmarked) [3n] | 12 | 3 | 1 | 6 | 5 | 10 | 0 | 16 | 9 | 56 | 9 | 0 | 3 | 0 | 5 | 9 | 15 | 9 | 1 | 20 | inhibition at 10 µM (OVCAR-8): 0%; inhibition at 10 µM (MCF7): 30%; inhibition at 10 µM (NCI-H322M): 3%; inhibition at 10 µM (KM12): 19%; inhibition at 10 µM (SN12C): 16%; inhibition at 10 µM (SF-539): 87%; inhibition at 10 µM (MDA-MB-231/ATCC): 0%; inhibition at 10 µM (SNB-19): 5%; inhibition at 10 µM (HOP-92): 4%; inhibition at 10 µM (OVCAR-3): 10%; inhibition at 10 µM (A498): 16%; inhibition at 10 µM (CAKI-1): 16%; inhibition at 10 µM (K-562): 6%; inhibition at 10 µM (SK-MEL-28): 3%; inhibition at 10 µM (SK-OV-3): 13%; inhibition at 10 µM (NCI-H23): 18%; inhibition at 10 µM (UACC-257): 0% |

From paper PMC12736255, “Reinvestigating Pyrrol-2-One-Based Compounds: From Antimicrobial Agents to Promising Antitumor Candidates” (Pharmaceuticals, 2025)
